From US20140343085A1, “USE OF ARYL DERIVATIVES FOR CONTROLLING ECTOPARASITES” (Novartis AG, priority 2011, published 2014)

Columns and labels:
[1] = Blood concentration of active enantiomer in dogs, fed vs fasted (HPLC-MSMS, enantioselective column); format: in vivo; settings: 50 mg/kg
Description: To 12 dogs of mixed breed, the racemic compound 5-[5-(3,4,5-trichloro-phenyl)-5-trifluoromethyl-4,5-dihydro-isoxazol-3-yl]-3-methyl-thiophene-2-carboxylic acid [(2,2,2-trifluoro-ethylcarbamoyl)-methyl]-amide was administered in form of a solution at a dose of 50 mg/kg of animal, and the blood concentration of said aryl isoxazoline compound within the dogs was then monitored up to 6 days following the administration.
4 dogs (Group 1) received a full daily ration of pelleted dry food 15 to 30 minutes before the administration of the aryl isoxazoline compound; The Group 2 dogs received an identical ration of pelleted dry feed 30 minutes after the administration of the active ingredient. To the remaining 4 dogs of Group 3, the aryl isoxazoline compound was administered in fasted condition, and they received the identical ration of pelleted dry food only 5 hours following the uptake of the antiparasiticide.
(§1) Analysis of the blood concentration was performed as follows. A blood sample from the animal was subjected to a precipitation step with organic solvent and subsequently cleaned up on a […] solid phase extraction cartridge. The eluate was evaporated to dryness and reconstituted in mobile phase and analyzed on a HPLC-MSMS using an enantioselective column (amylose-based, brand name “Chiralpak”).

[2] = Blood concentration of active enantiomer in cats, fed vs fasted (HPLC-MSMS, enantioselective column); format: in vivo; settings: 45 mg, fasted Group 2
Description: as §1
To 4 cats, each 45 mg of the racemic compound 5-[5-(3,4,5-trichloro-phenyl)-5-trifluoromethyl-4,5-dihydro-isoxazol-3-yl]-3-methyl-thiophene-2-carboxylic acid [(2,2,2-trifluoro-ethylcarbamoyl)-methyl]-amide were administered in form of an oral solution, and the blood concentration of said aryl isoxazoline compound within the cats was then monitored according to the method as described in Example 1 up to 24 days following the administration.
2 cats (Group 1) received a full daily ration of commercial wet food 15 to 30 minutes before the administration of the aryl isoxazoline compound; The two Group 2 cats received an identical ration of wet food only 5 hours following the uptake of the aryl isoxazoline.

With Cc1cc(C2=NOC(c3cc(Cl)c(Cl)c(Cl)c3)(C(F)(F)F)C2)sc1C(=O)NCC(=O)NCC(F)(F)F (racemic) [5-[5-(3,4,5-trichloro-phenyl)-5-trifluoromethyl-4,5-dihydro-isoxazol-3-yl]-3-methyl-thiophene-2-carboxylic acid [(2,2,2-trifluoro-ethylcarbamoyl)-methyl]-amide] the “Blood concentration of active ingredient, comparison of groups” value ([1]; Group 1 (fed 15 to 30 minutes before administration)) was “highest blood concentration of active ingredient”, the “Blood concentration of active ingredient, sufficiency for ectoparasite control” value ([1]; Group 2 (fed 30 minutes after administration)) was “allowed effective ectoparasite control as well” and the “Blood concentration of the active enantiomer, sufficiency for ectoparasite control” value ([1]; Group 3 (fasted, fed 5 hours after)) was “never reached a level being sufficient for an effective ectoparasite control”. The “Level of active ingredient, sufficiency for ectoparasite control” value [2] was “never reached a level of active ingredient sufficient to provide an effective ectoparasite control”.
